Test results taken from the NIST ThermoML archive (doi:10.1021/je2012555).

Assays:
[1] = mn = molality of the nth substance listed, in mol/kg; conditions: 101 kPa, Liquid; for mass density: Vibrating tube method
[2] = cn = amount concentration of the nth substance listed, in mol/dm3; conditions: 298.15 K, 101 kPa, Liquid, Vibrating tube method

CNC(=O)[C@H](C)NC(C)=O [(S)-2-acetamido-N-methylpropanamide] + O
[1]
Conditions | apparent molar heat capacity [J/K/mol] | mass density [kg/m3]
298.15 K, m1 = 0.02067 | – | 997.447
298.15 K, m1 = 0.04272 | – | 997.844
298.15 K, m1 = 0.0448 | 431 | –
298.15 K, m1 = 0.0545 | 429.7 | –
298.15 K, m1 = 0.0683 | 431.5 | –
298.15 K, m1 = 0.0751 | – | 998.437
298.15 K, m1 = 0.0909 | 429.6 | –
298.15 K, m1 = 0.1031 | – | 998.944
298.15 K, m1 = 0.1226 | – | 999.278
298.15 K, m1 = 0.1376 | 427.5 | –
298.15 K, m1 = 0.1431 | – | 999.644
298.15 K, m1 = 0.1816 | – | 1000.36
303.15 K, m1 = 0.0448 | 436.8 | –
303.15 K, m1 = 0.0545 | 437.5 | –
303.15 K, m1 = 0.0683 | 437.5 | –
303.15 K, m1 = 0.0909 | 437 | –
303.15 K, m1 = 0.1376 | 434.7 | –
308.15 K, m1 = 0.0448 | 444 | –
308.15 K, m1 = 0.0545 | 444.1 | –
308.15 K, m1 = 0.0683 | 442.3 | –
308.15 K, m1 = 0.0909 | 442.9 | –
308.15 K, m1 = 0.1376 | 442.4 | –
313.15 K, m1 = 0.0448 | 448 | –
313.15 K, m1 = 0.0545 | 447.7 | –
313.15 K, m1 = 0.0683 | 450.6 | –
313.15 K, m1 = 0.0909 | 450.6 | –
313.15 K, m1 = 0.1376 | 448.4 | –
318.15 K, m1 = 0.0448 | 453.6 | –
318.15 K, m1 = 0.0545 | 453.6 | –
318.15 K, m1 = 0.0683 | 453.3 | –
318.15 K, m1 = 0.0909 | 453.9 | –
318.15 K, m1 = 0.1376 | 453.5 | –
323.15 K, m1 = 0.0448 | 457.5 | –
323.15 K, m1 = 0.0545 | 458.3 | –
323.15 K, m1 = 0.0683 | 457.3 | –
323.15 K, m1 = 0.0909 | 458.2 | –
323.15 K, m1 = 0.1376 | 458 | –
328.15 K, m1 = 0.0448 | 459.8 | –
328.15 K, m1 = 0.0545 | 462.9 | –
328.15 K, m1 = 0.0683 | 462.4 | –
328.15 K, m1 = 0.0909 | 461.2 | –
328.15 K, m1 = 0.1376 | 461.5 | –

CNC(=O)CNC(C)=O [2-acetamido-N-methylacetamide] + O
[1]
Conditions | apparent molar heat capacity [J/K/mol] | mass density [kg/m3]
298.15 K, m1 = 0.04565 | – | 998.056
298.15 K, m1 = 0.0479 | 328.9 | –
298.15 K, m1 = 0.05924 | – | 998.352
298.15 K, m1 = 0.0715 | 328.6 | –
298.15 K, m1 = 0.07804 | – | 998.754
298.15 K, m1 = 0.09293 | – | 999.062
298.15 K, m1 = 0.0958 | 327.8 | –
298.15 K, m1 = 0.0987 | – | 999.177
298.15 K, m1 = 0.1439 | 326 | –
298.15 K, m1 = 0.153 | – | 1000.32
298.15 K, m1 = 0.1615 | – | 1000.5
298.15 K, m1 = 0.1766 | – | 1000.79
298.15 K, m1 = 0.1889 | – | 1001.04
298.15 K, m1 = 0.1912 | 324 | –
303.15 K, m1 = 0.0479 | 334.9 | –
303.15 K, m1 = 0.0715 | 336.1 | –
303.15 K, m1 = 0.0958 | 334.3 | –
303.15 K, m1 = 0.1439 | 333.6 | –
303.15 K, m1 = 0.1912 | 330.6 | –
308.15 K, m1 = 0.0479 | 343 | –
308.15 K, m1 = 0.0715 | 343.3 | –
308.15 K, m1 = 0.0958 | 342.7 | –
308.15 K, m1 = 0.1439 | 343.1 | –
308.15 K, m1 = 0.1912 | 342.7 | –
313.15 K, m1 = 0.0479 | 349.6 | –
313.15 K, m1 = 0.0715 | 350 | –
313.15 K, m1 = 0.0958 | 349.6 | –
313.15 K, m1 = 0.1439 | 350.6 | –
313.15 K, m1 = 0.1912 | 350.9 | –
318.15 K, m1 = 0.0479 | 357 | –
318.15 K, m1 = 0.0715 | 358.4 | –
318.15 K, m1 = 0.0958 | 359.1 | –
318.15 K, m1 = 0.1439 | 358.2 | –
318.15 K, m1 = 0.1912 | 360 | –
323.15 K, m1 = 0.0479 | 360.1 | –
323.15 K, m1 = 0.0715 | 361.7 | –
323.15 K, m1 = 0.0958 | 361.6 | –
323.15 K, m1 = 0.1439 | 361.4 | –
323.15 K, m1 = 0.1912 | 363 | –
328.15 K, m1 = 0.0479 | 365.8 | –
328.15 K, m1 = 0.0715 | 366.7 | –
328.15 K, m1 = 0.0958 | 367.2 | –
328.15 K, m1 = 0.1439 | 369.7 | –
328.15 K, m1 = 0.1912 | 369.1 | –

CNC(=O)[C@H](Cc1cnc[nH]1)NC(C)=O [N-acetyl-N'-methyl-L-alpha-histidinamide] + O
apparent molar heat capacity [J/K/mol], [1]
Conditions | m1 = 0.0546 | m1 = 0.0551 | m1 = 0.0616 | m1 = 0.0777 | m1 = 0.091 | m1 = 0.109 | m1 = 0.1358 | m1 = 0.137
298.15 K | 595.6 | 594.5 | 600.5 | 595.1 | 596.7 | 598.8 | 598.5 | 597.9
303.15 K | 606.8 | 610.2 | 612 | 609.8 | 608.7 | 610.9 | 612.6 | 608
308.15 K | 621.8 | 618.1 | 620.9 | 621.4 | 619.4 | 622.5 | 621 | 624.6
313.15 K | 634 | 628.9 | 631.6 | 629.5 | 635.5 | 630.5 | 637.1 | 631.6
318.15 K | 640.4 | 637 | 642.3 | 638 | 640.8 | 637.5 | 638.9 | 643.6
323.15 K | 648.2 | 652 | 651.7 | 648.2 | 646.7 | 654 | 650.6 | 650.9
328.15 K | 657.3 | 659.5 | 657 | 656.4 | 656.4 | 660.5 | 660 | 656

[2]
Conditions | mass density [kg/m3]
c1 = 0.03827 | 998.76
c1 = 0.04755 | 999.201
c1 = 0.04924 | 999.284
c1 = 0.05453 | 999.47
c1 = 0.05796 | 999.649
c1 = 0.06518 | 999.989
c1 = 0.0682 | 1000.14
c1 = 0.07517 | 1000.41
c1 = 0.07826 | 1000.59
c1 = 0.09152 | 1001.16
c1 = 0.0919 | 1001.16
c1 = 0.09948 | 1001.49
c1 = 0.1126 | 1002.02
c1 = 0.1188 | 1002.28

CNC(=O)[C@H](CC(C)C)NC(C)=O [(S)-2-acetamido-N,4-dimethylpentanamide] + O
[1]
Conditions | apparent molar heat capacity [J/K/mol] | mass density [kg/m3]
298.15 K, m1 = 0.0463 | 681 | –
298.15 K, m1 = 0.04684 | – | 997.65
298.15 K, m1 = 0.0559 | 682.8 | –
298.15 K, m1 = 0.07 | 682.5 | –
298.15 K, m1 = 0.08312 | – | 998.122
298.15 K, m1 = 0.0936 | 680.2 | –
298.15 K, m1 = 0.09402 | – | 998.23
298.15 K, m1 = 0.1007 | – | 998.343
298.15 K, m1 = 0.108 | – | 998.407
298.15 K, m1 = 0.1129 | 680 | –
298.15 K, m1 = 0.1157 | – | 998.565
298.15 K, m1 = 0.13 | – | 998.75
298.15 K, m1 = 0.1414 | – | 998.921
298.15 K, m1 = 0.1423 | 681.9 | –
298.15 K, m1 = 0.1613 | – | 999.112
303.15 K, m1 = 0.0463 | 683.5 | –
303.15 K, m1 = 0.0559 | 684.7 | –
303.15 K, m1 = 0.07 | 684.3 | –
303.15 K, m1 = 0.0936 | 682.6 | –
303.15 K, m1 = 0.1129 | 682.2 | –
303.15 K, m1 = 0.1423 | 684.4 | –
308.15 K, m1 = 0.0463 | 687.5 | –
308.15 K, m1 = 0.0559 | 688.6 | –
308.15 K, m1 = 0.07 | 687.3 | –
308.15 K, m1 = 0.0936 | 688.3 | –
308.15 K, m1 = 0.1129 | 686.7 | –
308.15 K, m1 = 0.1423 | 687.4 | –
313.15 K, m1 = 0.0463 | 690.1 | –
313.15 K, m1 = 0.0559 | 691.3 | –
313.15 K, m1 = 0.07 | 690.9 | –
313.15 K, m1 = 0.0936 | 690.3 | –
313.15 K, m1 = 0.1129 | 689.6 | –
313.15 K, m1 = 0.1423 | 691.1 | –
318.15 K, m1 = 0.0463 | 691.6 | –
318.15 K, m1 = 0.0559 | 692.3 | –
318.15 K, m1 = 0.07 | 692.3 | –
318.15 K, m1 = 0.0936 | 691.5 | –
318.15 K, m1 = 0.1129 | 691.7 | –
318.15 K, m1 = 0.1423 | 692.4 | –
323.15 K, m1 = 0.0463 | 693.1 | –
323.15 K, m1 = 0.0559 | 694.7 | –
323.15 K, m1 = 0.07 | 694.8 | –
323.15 K, m1 = 0.0936 | 693.4 | –
323.15 K, m1 = 0.1129 | 693.6 | –
323.15 K, m1 = 0.1423 | 694.8 | –
328.15 K, m1 = 0.0463 | 695.9 | –
328.15 K, m1 = 0.0559 | 696.8 | –
328.15 K, m1 = 0.07 | 696.9 | –
328.15 K, m1 = 0.0936 | 695.8 | –
328.15 K, m1 = 0.1129 | 697.5 | –
328.15 K, m1 = 0.1423 | 696.4 | –
